Experimental data published in ChEMBL document CHEMBL1158509, “Novel selective thiazoleacetic acids as CRTH2 antagonists developed from in silico derived hits. Part 2” (Bioorg Med Chem Lett, 2010).

Legend:
[1] = target: T1, Prostaglandin D2 receptor 2 (Homo sapiens, UniProt Q9Y5Y4); experiment: Displacement of[3H]PGD2 from human CRTH2 receptor expressed in […] cells; format: cell-based
T1 sequence (Q9Y5Y4 whole entry): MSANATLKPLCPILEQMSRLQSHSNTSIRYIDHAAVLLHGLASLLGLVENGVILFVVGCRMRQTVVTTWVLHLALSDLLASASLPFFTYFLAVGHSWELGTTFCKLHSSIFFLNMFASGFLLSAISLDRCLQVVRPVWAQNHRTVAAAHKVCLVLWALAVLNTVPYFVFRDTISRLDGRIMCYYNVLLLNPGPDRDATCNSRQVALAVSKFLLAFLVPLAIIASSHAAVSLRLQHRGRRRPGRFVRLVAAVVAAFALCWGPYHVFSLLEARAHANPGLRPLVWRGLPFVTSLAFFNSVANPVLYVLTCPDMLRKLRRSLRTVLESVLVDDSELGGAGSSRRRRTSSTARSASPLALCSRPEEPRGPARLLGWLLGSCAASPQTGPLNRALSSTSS

[2] = target: T1, Prostaglandin D2 receptor 2; experiment: Antagonist activity at human CRTH2 receptor expressed in […] cells assessed as inhibition of beta arrestin translocation by bioluminescence resonance energy transfer assay; format: functional, cell-based
[3] = target: T2, Prostaglandin D2 receptor 2 (Homo sapiens) (UniProt Q9Y5Y4); experiment: Antagonist activity at human CRTH2 receptor expressed in […] cells assessed as inhibition of beta arrestin translocation by bioluminescence resonance energy transfer assay relative to control; format: functional, cell-based
T2 sequence (whole entry): T1 sequence (Q9Y5Y4 whole entry)

Compound | IC50 [1] [µM] | IC50 [2] [µM] | Efficacy [3] [%]
O=C(O)Cc1sc(C(c2ccc(F)cc2)c2ccc(F)cc2)nc1-c1ccc(Cl)cc1 | 0.0097 | 0.18 | 80
COc1ccc(OC)c(-c2nc(C(c3ccccc3)c3ccccc3)sc2CC(=O)O)c1 |  | > 100 | 80
O=C(O)Cc1sc(C(c2ccccc2)c2ccccn2)nc1-c1ccc(Cl)cc1 (stereo not drawn) | 0.81 | 1.9 | 55
O=C(O)Cc1sc(C(c2ccc(F)cc2)c2ccc(F)cc2)nc1-c1ccnc(O)c1 |  |  | 60
O=C(O)Cc1sc(C(c2ccc(F)cc2)c2ccc(F)cc2)nc1-c1ccncc1 | 0.0053 | 0.04 | 80
O=C(O)Cc1sc(C(c2ccc(F)cc2)c2ccc(F)cc2)nc1-c1cccnc1 | 0.068 | 0.51 | 80
COc1ccc(C(c2ccccc2)c2nc(-c3ccc(Cl)cc3)c(CC(=O)O)s2)cc1 (stereo not drawn) | 0.0084 | 0.076 | 80
O=C(O)Cc1sc(C2(c3ccccc3)CCNCC2)nc1-c1ccc(Cl)cc1 | 2.9 | > 100 | 50
O=C(O)Cc1sc(C(c2ccc(F)cc2)c2ccc(F)cc2)nc1-c1ccoc1 | 0.014 | 0.13 | 80
COc1ccc(Cl)cc1-c1nc(C(c2ccccc2)c2ccccc2)sc1CC(=O)O | 9.4 | > 100 | 80
NS(=O)(=O)c1ccc(-c2nc(C(c3ccc(F)cc3)c3ccc(F)cc3)sc2CC(=O)O)cc1 | 1.5 | > 100 | 80
O=C(O)Cc1sc(C(c2ccc(F)cc2)c2ccc(F)cc2)nc1-c1ccnc(Cl)c1 | 0.0031 | 0.039 | 80
O=C(O)Cc1sc(C(c2ccccc2)c2ccc(Cl)cc2)nc1-c1ccc(F)cc1 (stereo not drawn) | 0.014 | 0.079 | 80
O=C(O)Cc1sc(C(c2ccc(F)cc2)c2ccc(F)cc2)nc1-c1cc[nH]c(=O)c1 | 0.068 | 0.89 | 
CS(=O)(=O)c1cccc(-c2nc(C(c3ccc(F)cc3)c3ccc(F)cc3)sc2CC(=O)O)c1 | 0.59 | 6.3 | 30
COc1ccc(-c2nc(C(c3ccccc3)c3ccccc3)sc2CC(=O)O)cc1 | 0.37 | 0.91 | 55
Cc1cc(-c2nc(C(c3ccc(F)cc3)c3ccc(F)cc3)sc2CC(=O)O)ccn1 | 0.0031 | 0.053 | 80

Compound | IC50 [1] [µM] | IC50 [2] [µM] | Efficacy [3] [%]
O=C(O)Cc1sc(C(c2ccccc2)c2ccc(F)cc2)nc1-c1ccc(Cl)cc1 (stereo not drawn) | 0.017 | 0.036 | 80
COc1ccc(C(c2ccc(OC)cc2)c2nc(-c3ccc(F)cc3)c(CC(=O)O)s2)cc1 | 0.0039 | 0.031 | 80
O=C(O)Cc1sc(C(c2ccc(F)cc2)c2ccc(F)cc2)nc1-c1ccco1 | 0.018 | 0.14 | 80
Nc1ccc(-c2nc(C(c3ccc(F)cc3)c3ccc(F)cc3)sc2CC(=O)O)cn1 | 0.1 | 0.5 | 60
O=C(O)Cc1sc(C(c2ccc(F)cc2)c2ccc(F)cc2)nc1-c1ccnc(N2CCC2)c1 | 0.66 | > 100 | 80
O=C(O)Cc1sc(C(c2ccc(F)cc2)c2ccc(F)cc2)nc1-c1cc(F)nc(F)c1 | 0.0054 | 0.11 | 80
CS(=O)(=O)Nc1cccc(-c2nc(C(c3ccc(F)cc3)c3ccc(F)cc3)sc2CC(=O)O)c1 | 0.04 | 0.37 | 80
Cc1cc(-c2nc(C(c3ccc(F)cc3)c3ccc(F)cc3)sc2CC(=O)O)cnc1N | 0.88 | > 100 | 80
O=C(O)Cc1sc(C(c2ccccc2)c2ccccc2)nc1-c1cccc(F)c1 | 0.0029 | 0.029 | 80
O=C(O)Cc1sc(C(c2ccc(F)cc2)c2ccc(F)cc2)nc1-c1ccc(F)cc1 | 0.0075 | 0.072 | 80
O=C(O)Cc1sc(C(c2ccc(F)cc2)c2ccc(F)cc2)nc1-c1ccc(F)c(F)c1 | 0.0035 | 0.041 | 80
N#Cc1cccc(-c2nc(C(c3ccc(F)cc3)c3ccc(F)cc3)sc2CC(=O)O)c1 | 0.02 | 0.22 | 80
NS(=O)(=O)c1cccc(-c2nc(C(c3ccc(F)cc3)c3ccc(F)cc3)sc2CC(=O)O)c1 | 0.14 | 0.71 | 55
CC(=O)N1CCC(c2ccccc2)(c2nc(-c3ccc(Cl)cc3)c(CC(=O)O)s2)CC1 | 0.052 | 0.55 | 50
O=C(O)Cc1sc(C(c2ccc(F)cc2)c2ccc(F)cc2)nc1-c1ccnc(N2CCCC2)c1 | 0.23 | > 100 | 80
CN(C)c1cc(-c2nc(C(c3ccc(F)cc3)c3ccc(F)cc3)sc2CC(=O)O)ccn1 | 0.38 | > 100 | 80
O=C(O)Cc1sc(-c2ccc(Oc3ccccc3)cc2)nc1-c1ccc(Cl)cc1 |  | 1.3 | 50

Further lines, results first:

IC50 [1] [µM] | IC50 [2] [µM] | Efficacy [3] [%] | Compound
0.5 | 2 | 50 | O=C(O)Cc1sc(C2COc3ccccc3O2)nc1-c1ccc(Cl)cc1 (stereo not drawn)
 |  | 50 | O=C(O)Cc1sc(Nc2ccccc2)nc1-c1ccc(Cl)cc1
0.34 | 32 | 50 | O=C(O)Cc1sc(CC(c2ccccc2)c2ccccc2)nc1-c1ccc(Cl)cc1
0.19 | > 100 | 50 | CCC(c1ccccc1)c1nc(-c2ccc(Cl)cc2)c(CC(=O)O)s1 (stereo not drawn)
1.5 | 0.73 | 30 | O=C(O)Cc1sc(CS(=O)(=O)c2ccc(Cl)cc2)nc1-c1ccc(Cl)cc1
 | 0.96 | 50 | O=C(O)Cc1sc(-c2ccccc2)nc1-c1ccc(Cl)cc1 [FENTIAZAC]
0.44 | 2.3 | 30 | O=C(O)Cc1sc(NCc2ccccc2)nc1-c1ccc(Cl)cc1
> 100 | > 100 | 50 | Nc1nc(-c2ccc(Cl)cc2)c(CC(=O)O)s1
 |  | 50 | O=C(O)Cc1sc(Cc2ccccc2-c2ccccc2)nc1-c1ccc(Cl)cc1
0.056 | 0.51 | 50 | O=C(O)Cc1sc(C(Cc2ccccc2)c2ccccc2)nc1-c1ccc(Cl)cc1 (stereo not drawn)
3.2 | > 100 | 80 | O=C(O)Cc1sc(C(c2ccccc2)c2cccc(Cl)n2)nc1-c1ccc(Cl)cc1 (stereo not drawn)
0.65 | 0.39 | 50 | O=C(O)Cc1sc(NCCc2ccccc2)nc1-c1ccc(Cl)cc1
0.045 | 0.075 | 80 | O=C(O)Cc1sc(C(c2ccccc2)c2ccc(Cl)cc2)nc1-c1ccc(Cl)cc1 (stereo not drawn)
0.032 | 0.37 | 50 | O=C(O)Cc1sc(COc2ccc(Cl)cc2)nc1-c1ccc(Cl)cc1
0.25 | 0.45 | 50 | O=C(O)Cc1sc(CSc2ccccc2)nc1-c1ccc(Cl)cc1
 |  | 50 | O=C(O)Cc1sc(Cc2ccccc2)nc1-c1ccc(Cl)cc1
